The values below come from patent US20250084416A1, “TARGETING OF XKR8 IN THERAPIES” (University of Pittsburgh - Of the Commonwealth System of …, priority 2022, published 2025).

Series [1] relates to mXkr8 mRNA. The experiment in a line: qRT-PCR of Xkr8 mRNA in cultured murine tumor cells (CT26, Panc02). To be noted: for Xkr8 mRNA expression: 24 h treatment. The format is cell-based. As to the method:
(§1) To examine the effect of different chemotherapeutic agents on the expression level of Xkr8 mRNA, CT26, Panc02, PANC-1 or HT29 cells were treated with various concentrations of FuOXP, DOX or PTX. Twenty-four h later, cells were collected and subjected to qRT-PCR of mXkr8 or hXkr8 as detailed below.
(§2) To examine the impact of ActD treatment on the expression level of Xkr8 mRNA, CT26 or PANC-1 tumor cells were treated with FuOXP (10 μM) for 12 h followed by addition of ActD (2 μM). At 2 or 4 h following ActD treatment, cells were collected and subjected to qRT-PCR of Xkr8 mRNA as described below. In another study, cells were treated with NAC (2.5 mM) for 12 h followed by treatment with FuOXP, DOX or PTX for another 12 h. qRT-PCR of Xkr8 mRNA was then similarly performed.
(§3) Tumor tissues or cells collected from the above experiments were subjected to RNA extraction by TRIzol™. cDNA was generated from the purified RNA using QuantiTect Reverse Transcription Kit (Qiagen, MD, USA) according to the manufacturer's instructions. Quantitative real-time PCR was performed using SYBR Green Mix on a 7900 HT PCR instrument (Applied Biosystems, MA, USA). Relative target mRNA levels were analyzed using delta-delta-Ct calculations and normalized to GAPDH.

For series [2], the system named is hXkr8 mRNA. Nature of the series: qRT-PCR of Xkr8 mRNA in cultured human tumor cells (HT-29, PANC-1). The format is cell-based. To be noted: for Xkr8 mRNA expression: 24 h treatment. Here is the method:
as §1, §2, §3
For orientation: In qPCR the cycle at which signal appears reflects the starting amount.

The subject of series [3] is luciferase in MC38-Luc cells. The experiment in a line: In vitro luciferase gene knockdown. The format is cell-based, murine. Particulars: 1 h pretreatment prior to siLUC NP transfection.
Series [4] relates to hXkr8 protein. The experiment in a line: Western blot of hXkr8 protein in HT29 and PANC-1 cells. It counts as cell-based, human. Particulars: PANC-1 cells; NAC 12 h then drug 12 h. Here is the method: Analysis of hXkr8 protein level by Western blot: Cultured HT29 or PANC-1 cells received similar treatments as described above. Cells were then lysed with RIPA lysis buffer (Thermo Fisher Scientific, MA, USA) by gently shaking on ice for 30 min. After centrifugation at 12,300 RPM for 10 min, the supernatants were collected, and the concentrations of proteins were measured using Pierce BCA Protein Assay Kit (ThermoFisher Scientific, MA, USA). The protein samples were denatured by boiling for 5 min and loaded onto 10% SDS-PAGE gel for electrophoresis. The proteins in the gels were subsequently transferred onto PVDF membranes (Bio-Rad, CA, USA). The membranes were then incubated in blocking buffer (5% non-fat dry milk in TBST) for 1 h at RT, followed by incubation with anti-hXkr8 polyclonal antibody (ThermoFisher Scientific, MA, USA) in antibody dilution buffer (5% BSA in TBST, 1/2000 dilution) with gentle agitation overnight at 4° C. After washing with TBST for three times, the membranes were subsequently incubated with the secondary HRP-linked goat anti-rabbit IgG antibody (Cell Signaling Technology, MA, USA) for 1 h at RT. After another three washes with TBST, the membranes were incubated with Pierce™ ECL Western Blotting Substrate (ThermoFisher Scientific, MA, USA) for 1 min. Protein expression was normalized against β-Tubulin expression.
For orientation: A western blot detects proteins with antibodies after separation by electrophoresis.

The test system of series [5] is HUVECa and CT26 cells. The experiment in a line: Transwell co-culture transcytosis (HUVECa upper, CT26 lower chamber). The format is cell-based. Particulars: endocytosis inhibitor. Here is the method:
To explore a potential role of transcytosis in tumor targeting, a co-culture experiment with HUVECa and CT26 cells using a Transwell plate was conducted.

In series [6] the test system is CT26 tumor cells. Nature of the series: Surface PS on CT26 tumor cells and EVs (Annexin V flow). It counts as cell-based, murine. Particulars: CT26 tumor cells in vitro. Here is the method:
Effect of Xkr8 knockdown on the PS expression levels of tumor cells and EVs following FuOXP treatment: CT26 cancer cells were first treated with siXkr8 NPs for 72 h and then treated with FuOXP/siXkr8-coloaded NPs for another 24 h. EVs were isolated from culture medium using gradient ultra-centrifugation according to a previously established protocol^48. Briefly, culture medium was collected and centrifuged for 20 min at 1,800 RPM at 4° C. to clear dead cells and cell debris. The supernatant was then transferred to a polycarbonate ultracentrifuge tube and centrifuged at 9,000 RPM for 35 min at 4° C. to collect larger EVs. The supernatant was centrifuged again at 30,000 RPM for 80 min at 4° C. and the pellet was resuspended in 100 μL of PBS for smaller EVs collection. The levels of surface PS on tumor cells and EVs were analyzed by flow using BV421-labeled Annexin V. For detection of EVs by flow cytometry, electronic “Height” (-H) parameter rather than the “Area” (-A) parameter was used to allow optimal signal detection.

`COc1cccc2c1C(=O)c1c(O)c3c(c(O)c1C2=O)C[C@@](O)(C(=O)CO)C[C@@H]3O[C@H]1C[C@H](N)[C@H](O)[C@H](C)O1` [DOX, doxorubicin]: the “Xkr8 mRNA expression” value in series [1] (CT26 cells), in series [1] (Panc02 cells), in series [2] (HT-29 cells) and in series [2] (PANC-1 cells) was “Induction” in each case.
On to `CN(C)CCCN1c2ccccc2Sc2ccc(Cl)cc21` [chlorpromazine], for which the “efficiency of silence after inhibitor pretreatment” value in series [3] is “drastically attenuated”.
Still for that read-out and setting: the result for `N=C(N)NC(=O)c1nc(Cl)c(N)nc1N` [amiloride] reads “drastically attenuated”.
On to `CC(=O)N[C@@H](CS)C(=O)O` [NAC, N-acetylcysteine], for which the “effect of pretreatment on Xkr8 mRNA induction by the 3 drugs” value in series [1] (CT26 cells, NAC 12 h then drug 12 h) is reported as “partially attenuated”; in series [2] (PANC-1 cells, NAC 12 h then drug 12 h), “partially attenuated”. Besides, in series [4], the “effect of pretreatment on Xkr8 protein induction by the 3 drugs” value is listed as “partially attenuated”.
As for `O=C(N/N=C/c1ccc(O)c(O)c1)c1cc2ccccc2cc1O` [dynasore], the “effect on transcytosis-mediated transfection of CT26 cells” value in series [5] is listed as “significantly inhibited”. The “efficiency of silence after inhibitor pretreatment” value in series [3] is “drastically attenuated”.
As to `C=C1[C@@H](C)[C@H]2[C@H](Cc3ccccc3)NC(=O)[C@]23[C@H](OC(C)=O)/C=C/[C@@](C)(O)C(=O)[C@@H](C)C/C=C/[C@H]3[C@@H]1O` [cytochalasin D], in series [3], the “efficiency of silence after inhibitor pretreatment” value is reported as “drastically attenuated”.
Same read-out and setting: in the case of `CCCCC[C@@H](O)[C@H]1C(=O)O[C@H](C)[C@@H](O)/C=C/C=C/C=C/C=C/C=C(\C)[C@@H](O)C[C@H](O)C[C@H](O)C[C@H](O)C[C@H](O)C[C@H](O)C[C@@H]1O` [filipin] it was “drastically attenuated”.
Turning to “siXkr8: Murine Xkr8 siRNA, Seq ID No 1 and 2, siRNA ID 164623 (chain 1 GGCACAAAUUUUAUGCCUG; chain 2 CAGGCAUAAAAUUUGUGCC; RNA, backbone not given here; further chemistry not fully specified; listed as Mus musculus)”, in series [6], the “level of surface PS (Annexin V+ cells)” value is “almost abolished”.
Consider `CC(=O)O[C@H]1C(=O)[C@@]2(C)[C@H]([C@H](OC(=O)c3ccccc3)[C@]3(O)C[C@H](OC(=O)[C@H](O)[C@@H](NC(=O)c4ccccc4)c4ccccc4)C(C)=C1C3(C)C)[C@]1(OC(C)=O)CO[C@@H]1C[C@@H]2O` [PTX, paclitaxel], for which the “Xkr8 mRNA expression” value in series [1] (CT26 cells), in series [1] (Panc02 cells), in series [2] (HT-29 cells) and in series [2] (PANC-1 cells) was “Induction” in each case.
